# In paper PMC2424174, “Suppression of Tumor Growth and Angiogenesis by a Specific Antagonist of the Cell-Surface Expressed Nucleolin” (PLoS ONE, 2008):
# Experiments:
# HUVECs = test: HB-19 entry in HUVECs, confocal microscopy; format: cell-based, human; settings: 5 µM HB-19/Btn, 1 hour, 37°C
# Method: Figure 3 Specific binding and entry of HB-19 in endothelial cells. (A) HB-19/Btn forms a stable complex with nucleolin expressed on the surface of HUVECs. Cells were incubated (45 min, 20°C) with 0, 1, 2, 4, 8 and 12 µM of HB-19/Btn before preparation of surface/cytoplasmic and nuclear extracts and recovery of surface nucleolin from the surface/cytoplasmic extracts as in Figure 2A. Material extracted from 2×10^7 and 2×10^6 cells was analyzed in panels Surface and Surface/Cytoplasm or Nucleus, respectively. Immunoblotting was with the anti-nucleolin mAb D3. (B) The specific binding of HB-19/Btn to HUVECs. The binding of 1 µM HB-19/Btn was studied at 4 °C by FACScan analysis. To show the specificity of binding, the reaction was carried out in the absence or presence of 50 µM HB-19, F3, or 9Arg peptides. The ordinate gives the relative cell number, whereas the abscissa gives the relative fluorescence intensity. (C) HB-19 entry in HUVECs. Cells were incubated with 5 µM of HB-19/Btn (1 hour, 37°C) before fixation in PFA (for surface binding) or PFA-Triton (for entry), respectively. Cells were then successively incubated with rabbit anti-biotin antibodies and goat Texas Red-conjugated anti-rabbit IgG, and processed for confocal microscopy. The scans of cells toward the middle cell layer are presented (with the DAPI stained nuclei). […]
# MDA-MB-231 cells = test: Colony formation in soft agar, MDA-MB-231; format: cell-based, human
# Method: Figure 4 HB-19 inhibits colony formation in soft agar by tumor cell lines. (A) MDA-MB-231 cells in culture medium were seeded in triplicate in the absence (histogram C) or presence of 0.1, 0.5 and 1 of µM HB-19, or 0.1 µM of the anti-nucleolin mAb MS-3 or control IgG, or 10 µM bisphosphonate (BisP). (B) Various tumor cell lines (as indicated) in culture medium were seeded in triplicate in the absence (histogram Control) or presence of 5 µM HB-19. After 10–21 days, colonies with diameters greater than 50 µm were scored as positive. Statistical significance: *0.01<p<[…], **p<0.01, ***p<0.001.
# Carcinoma cells (2×10^4) were mixed in 0.35% top agar, diluted in complete medium (DMEM containing 10% FBS) in the absence or presence of HB-19, and plated onto 0.8% bottom agar into 12-well plates. Cells were treated twice a week during 10 to 21 days. Colonies with diameters greater than 50 µm were scored as positive using a phase contrast microscope equipped with a measuring grid at magnification 100× [45]. The number of colonies was determined by analyzing 5 fields/well from 3 wells and the test was repeated at least twice.
# [1] = test system: CD31 endothelial marker in tumors; test: Tumor vascularization, CD31 immunohistochemistry; format: in vivo, mouse; settings: CD31 staining; HB-19 5 mg/kg or 5-FU 40 mg/kg, intraperitoneal, 8 weeks; compared to untreated tumors
# Method: Figure 9 Reduced density of blood vessels in HB-19 treated tumor-bearing mice. Sections of tumors recovered from mice, untreated control and treated with either HB-19 or 5-FU (experiment described in Figure 8B) were stained with antibodies against the CD31 endothelial marker and analyzed by fluorescence microscopy. […] Angiogenesis was quantified by image analysis of CD31-labeled endothelial cells.
# Immediately after surgical resection, tumors, were frozen in liquid nitrogen and fixed for 20 min in acetone at 4°C or fixed with 4% PFA for paraffin inclusion. The sections of 8 µm were re-hydrated and saturated in PBS containing 1% BSA and 2% normal goat serum. To visualize tumor endothelial cells, sections were incubated with a Rat anti-mouse CD31 monoclonal antibody (1∶50) in saturation buffer 1 hour at room temperature. After two washes in PBS, sections were incubated for 1 hour at room temperature with biotinylated goat anti-Rat IgG (1∶1000 dilution; Chemicon International Inc., Temecula, CA) in saturation buffer, followed by three washes in PBS and incubation with the avidin-biotinylated-alkaline phosphatase complex (Vector Laboratories). […] Angiogenesis was quantified by Image analysis of CD31-labeled endothelial cells. The EC density in each field was expressed as the ratio of EC area/total area examined ×100 (%). […]
substance,measurement,setting,value
"pseudo-tripeptide Lysψ(CH2N)-Pro-Arg coupled to a template (H2NLys-Lys-Lys-Gly-Pro-Lys-Glu-Lys-AhxCONH2) [HB-19, pseudopeptide presenting pentavalently the pseudo-tripeptide Lysψ(CH2N)-Pro-Arg coupled to a template]",internalization and subcellular localization,HUVECs,internalized and is concentrated in the cytoplasm without translocation into the nucleus
same,reduction of colony-forming capacity,"MDA-MB-231 cells; 1 µM HB-19, triplicate, colonies >50 µm, 10–21 days",50%
same,colony formation,"MDA-MB-231 cells; 5 µM HB-19, MDA-MB-231",reduced markedly
same,reduction of colony-forming capacity,"MDA-MB-231 cells; HB-19 0.1, 0.5 and 1 µM, anti-nucleolin mAb MS-3 0.1 µM",reduced significantly
same,inhibition of tumor vascularization,[1],significantly inhibited tumor vascularization
